Test results as given in patent US20110142866A1, “PEPTIDE ANALOGUES AND CONJUGATES THEREOF” (Eldrug S.A., priority 2007, published 2011).
Entries after “also recorded” stand apart in the source; their conditions may differ.

Key:
[1] = test system: native bovine MBP protein; experiment: ELISA cross reaction of sera with native MBP protein; type: in vivo; set-up: key to Cross reaction with native MBP / Ab Cross reaction with native MBP: −: negative; +/−: very weak; +: weak; ++: moderate; +++: strong; details: for Cross reaction with native MBP: Table 2, peptide analogues conjugated to reduced mannan-KLH; for Ab Cross reaction with native MBP: Table 3, peptide analogues emulsified in complete Freund's adjuvant; for cross reaction of sera with native MBP protein (in words): peptide conjugated to reduced mannan, 1/200 and 1/1,600 sera dilution
Experimental: Blood was collected and sera isolated from mice prior to and 2 weeks after immunization. MBP83-99 peptides conjugated to BSA were coated onto polyvinyl chloride (PVC) microtiter plates at 10 μg/ml or with 2.5 μg/ml native MBP bovine protein in 0.2 M NaHCO3 buffer, pH 9.6, overnight at 4′C and non-specific binding was blocked with 2% BSA for 1.0 hour at room temperature. After washing (0.05% Tween 20/PBS), serial dilutions of sera were added and incubated for a further 2.0 hours at room temperature. The plates were washed and bound antibody was detected using HRP-conjugated sheep anti-mouse antibody (1:1000 in PBS) (Amersham, UK) and developed using 2,2″-azino-di(3-ethylbenzthiazoline) sulphonate (ABTS) (Sigma, UK). Absorption at 405 nm was recorded using an ELISA microplate reader.

[2] = test system: IFN-γ production induced by the native MBP83-99 peptide; experiment: In vitro IFN-γ antagonism ELISpot; type: cell-based, SJL/J mice; set-up: key to Antagonism: −: negative; +/−: very weak; +: weak; ++: moderate; +++: strong; details: for Antagonism: Table 3, complete Freund's adjuvant
Experimental: Mice were immunized with native MBP83-99 peptide emulsified in CFA, and spleen cells were isolated 25 days later. The ability of cyclic mutant MBP83-99 peptide analogues to antagonize IFN-γ production was assessed by ELISpot analysis. The native MBP83-99 peptide was added together with cyclic mutated MBP83-99 analogues, and % IFN-γ inhibition is shown.
ELISpot assays are an ex vivo 18 h assay that measures IFN-γ secretion by T cells. […] The sensitivity of the assay is higher than limiting dilution analysis, FACscan analysis, or ELISA methods and can reliably detect precursor frequencies of antigen specific effectors of 1 in every 0.5 million cells. It is therefore an appropriate method to detect antigen specific cells. Here, we measured IFN-γ production generated by the native MBP83-99 peptide and assessed the % inhibition (antagonize) of IFN-γ produced in the presence of mutant peptide analogues.
Cyclic head-to-tail MBP83-99 single and double mutant analogues were tested for their ability to inhibit IFN-γ responses induced by the native agonist MBP83-99 peptide. Mice were immunized with the native agonist MBP83-99 peptide emulsified in complete Freund's adjuvant (CFA). Spleen cells were isolated 25 days later, and the ability of cyclic peptides to inhibit (antagonize) IFN-γ production was assessed in in vitro antagonism ELISpot assays (FIG. 8). The results are shown as % IFN-γ inhibition of each cyclic mutant peptide analogue, in comparison to the native MBP83-99 peptide alone. All cyclic peptide analogues inhibited IFN-γ production between 30% and 90%. […] However, the single mutant analogue cyclo(83-99)[A^91]MBP83-99 was the most efficient in inhibiting IFN-γ production induced by the native MBP83-99 peptide, up to 92%. On the basis of the ability of cyclo(83-99)[A^91]MBP83-99 peptide to inhibit (antagonize) IFN-γ production by T cells, we chose to examine its in vivo efficacy in SJL/J mice after emulsification in CFA or conjugation to reduced mannan.

| Molecule | Cross reaction with native MBP [1] | Ab Cross reaction with native MBP [1] | cross reaction of sera with native MBP protein (in words) [1] | Antagonism [2] | cross reaction of sera with native MBP protein (in words) ([1]; listed as [A^91, R^96]MBP83-99) | % IFN-γ inhibition ([2]; spleen cells of mice immunized with native MBP83-99 in CFA, 25 days, cyclic analogue added together with native MBP83-99) |
| --- | --- | --- | --- | --- | --- | --- |
| E N P V V H F F Y N I V T P R T P (ENPVVHFFYNIVTPRTP) [[Y^91]MBP83-99] | − | − | did not cross react | ++ |  |  |
| E N P V V H F F E N I V T P R T P (ENPVVHFFENIVTPRTP) [[E^91]MBP83-99] | + | − | reacted moderately; also recorded: cross reacted weakly | ++ |  |  |
| CC[C@H](C)[C@@H]1NC(=O)[C@H](CC(N)=O)NC(=O)[C@H](CCCCN)NC(=O)[C@H](Cc2ccccc2)NC(=O)[C@H](Cc2ccccc2)NC(=O)[C@H](Cc2c[nH]cn2)NC(=O)[C@H](C(C)C)NC(=O)[C@H](C(C)C)NC(=O)[C@@H]2CCCN2C(=O)[C@H](CC(N)=O)NC(=O)[C@H](CCC(=O)O)NC(=O)[C@@H]2CCCN2C(=O)[C@H]([C@@H](C)O)NC(=O)[C@H](CCCNC(=N)N)NC(=O)[C@@H]2CCCN2C(=O)[C@H]([C@@H](C)O)NC(=O)[C@H](C(C)C)NC1=O [cyclo(83-99)MBP83-99, cyclo(83-99)E N P V V H F F K N I V T P R T P] |  | − | highly cross reacted |  |  |  |
| E N P V V H F F A N I V T P R T P (ENPVVHFFANIVTPRTP) [[A^91]MBP83-99] | + | ++ | reacted moderately; also recorded: cross reacted weakly | ++ |  |  |
| E N P V V H F F R N I V T A R T P (ENPVVHFFRNIVTARTP) [[R^91, A^96]MBP83-99] | +++ | − | cross reactive | ++ | highly cross reacted |  |
| E N P V V H F F F N I V T P R T P (ENPVVHFFFNIVTPRTP) [[F^91]MBP83-99] | − | − | did not react | ++ |  |  |
| E N P V V H F F K N I V T P R T P (ENPVVHFFKNIVTPRTP) [MBP83-99, reference compound] | +++ | − | highly cross reacted; also recorded: cross reactive |  |  |  |
| cyclo(83-99)E N P V V H F F A N I V T P R T P (ENPVVHFFANIVTPRTP; cyclised or stapled) [cyclo(83-99)[A^91]MBP83-99] | + | − | reacted moderately | ++ |  | up to 92% |
